The values that follow come from paper PMC5697638, “Identification of a Potent Phosphoinositide 3‐Kinase Pan Inhibitor Displaying a Strategic Carboxylic Acid Group and Development of Its Prodrugs” (Chemmedchem, 2017).

Bounds are passed on as bounds.

One series relates to PC3 cells. Put plainly: PC3 cell proliferation (MTT). Type of series: cell-based. Also noted: key to Cell proliferation: active: Active: able to reduce proliferation to an extent greater than 50 %; inactive: able to reduce proliferation to an extent less than 50 %. Particulars: PC3 cells, 10 μM of each prodrug. On the procedure:
The biological activity of each prodrug was tested by analyzing their ability to decrease PC3 proliferation as a rapid test to evaluate the PI3Ks inhibitory activity after hydrolysis in a cell‐based assay. […] The choice of using such a cut‐off was due to the intent to identify rapidly which prodrug could be hydrolyzed in the assay to release the active compound. As expected, a good correlation between rate of hydrolysis and cellular activity was observed, and esters 64–68 and 70–73 were determined to be good candidates for topical use. We decided to focus our attention on ester 64, as its half‐life was a good compromise for a prodrug. The EC50 value of this ester was then evaluated on PC3 cells, and a value of (2.3±0.8) μM was obtained.
Cell proliferation: PC3 cell proliferation was measured with a 3‐(4,5‐dimethyl thiazol‐2‐yl)‐2,5‐diphenyltetrazolium bromide (MTT)‐based colorimetric assay (#11 465 007 001 Roche Diagnostic GmbH, Germany). PC3 cells were seeded in a 96‐well plate at a concentration of 10^4 cells mL^−1. PC3 cells were treated for 72 h with increasing concentrations of 64, and MTT was added. After ON solubilization of the MTT metabolite, formazan, the absorbance (λ=550–600 nm absorbance, with a reference wavelength of 650 nm) of each well was read in a multi‐well reader (Glomax multi detection system, Promega, model number 9301‐010). The percentage of proliferating cells was calculated by relating each absolute value to the control intended as PC3 cells treated with DMSO alone. An IC50 value was then derived by plotting all data on a dose–response curve (Graph Pad software) by using nonlinear regression fit (equation [log agonist] versus response).

Series [1] can be described thus: metabolic stability in rat liver microsomes (RLM). Type of series: in vitro ADME. The conditions noted are these: RLM, 50 μM substrate, with NADPH; for Residual microsomal substrate (t=60 min): LC–UV. On the procedure:
(§1) Twelve esters were prepared (see the Experimental Section for their synthesis and the Supporting Information for chromatographic methods) and evaluated in terms of metabolic stability. For this task, a combined approach based on microsomal and plasmatic stability assays was exploited considering the relevance of the plasmatic and hepatic tissues in esterase activity. Microsomal stability of the selected esters was evaluated by monitoring the disappearance of the substrate incubated in rat liver microsomes (RLM) at 50 μM concentration, in the presence of NADPH. In Table 4, the percentage of the remaining substrate, after incubation (t=60 min), with respect to the initial amount is reported. Overall, the compounds underwent a relevant metabolic transformation, and the substrate depletion ranged from 0 (for 76) to 100 % (for 70). This is mainly due to hydrolysis of the ester function, whereas the metabolites arising from the oxidation catalyzed by the NADPH‐dependent monooxygenase system were negligible from a quantitative point of view. Indeed, the main metabolite formed during the incubation of the esters was corresponding carboxyl derivative 37. […] Moreover, whereas CH2‐pyridin‐4‐yl ester 70 was completely metabolized, corresponding benzyl derivative 65 and piperonyl derivative 72 were more hydrolytically stable, and their residual substrates were 53 and 83 %, respectively. The hydrolytic stability of the selected esters was also evaluated by monitoring the depletion of the substrate incubated at a 50 μM concentration in mouse plasma over a period of 30 min. As expected, the plasmatic metabolic fate of the esters was characterized by the formation of 37 as the only metabolite (see Figure S4). The rate constant k [min^−1], derived for the substrate peak area versus time curve (single‐exponential decay equation—GraphPad Prism software, Inc., San Diego, CA (USA); see Figure S5) was used to calculate the in vitro half‐life t 1/2 [min], and the values are reported in Table 4.
Metabolic stability of PI3K inhibitors in RLM fraction
The standard incubation mixture (500 µL final volume), in 1.5 mL Eppendorf tubes, was carried out in a 50 mM TRIS-HCl buffer (pH 7.4) containing 3.3 mM MgCl2, 1.3 mM NADPNa2, 3.3 mM glucose 6-phosphate, 0.4 Units/mL glucose 6-phosphate dehydrogenase (NADPH regenerating system), acetonitrile as cosolvent (1% of final volume) and 50 µM of substrate. After pre-equilibration of the mixture, an appropriate volume of rat microsomal suspension was added to give a final protein concentration of 1 mg/mL. The mixture was shaken for 1 hour at 37°C and the reaction was quenched by diluting the samples with 500 µL of ice-cold acetonitrile. The samples were then centrifuged at 13,000 rpm for 10 min, and the supernatant was directly injected onto the HPLC column for analysis. Control incubations were performed without microsomes. […]
(§2) A Shimadzu HPLC system (Shimadzu, Kyoto, Japan), consisting of two LC-10AD Vp module pumps, an SLC-10A Vp system controller, an SIL-10AD Vp autosampler, and a DGU-14-A on-line degasser was used for the analysis. All the chromatographic separations were performed on a Phenomenex Luna C18 5µm (150 x 4.6 mm i.d.) (Phenomenex srl, Castel Bolognese, Italy) as a stationary phase protected by a Luna C18 SecurityGuard (Phenomenex srl). The SPD-M10Avp photodiode array detector was used to detect the analyte at 254 nm. LC Solution 1.24 software was used to process the chromatograms. Aliquots (20 µL) of supernatants obtained from incubations were injected onto the HPLC system and eluted with a mobile phase (flow rate: 1 mL/min) consisting of solvent A- 0.5% aqueous formic acid solution and solvent B- acetonitrile/methanol 80:20.
(§3) The eluants were filtered through a 0.45-µm pore size polyvinylidene difluoride membrane […]
(§4) The following gradients programs were used: […]
Background: Liver microsomes are a subcellular fraction often used to study metabolism.

The nature of series [2]: stability in mouse plasma. The conditions noted are these: 50 μM substrate. Type of series: in vitro ADME. On the procedure:
as §1, with “4. […]” for “4.”
Stability of PI3K inhibitors in mouse plasma
An aliquot of 460 µL of blank plasma spiked with substrate (50 µM, final concentration, DMSO 5%) was incubated at 37 °C for 30 minutes. Aliquots (70 µL) of the incubation took at 0-2-5-10-20, and 30 minutes were diluted with 140 µL of acetonitrile, homogenized, and centrifuged at 13,000 rpm for five minutes. Supernatants (20 µL) were injected onto HPLC.
as §2, §3, §4

Series [3] concerns the target T1, human PI3Kα (PIK3CA/PIK3R1) (Homo sapiens, UniProt P42336).
T1 construct: purchased ProQinase, Germany 1161‐1165‐1
Description: lipid kinase assay (ADP-Glo), PI3Kα. Format: biochemical. The protocol:
(§5) In vitro selection, lipid kinase assay: To determine the inhibitory activity of the new molecular entities on PI3K enzyme, a lipid kinase assay was performed: recombinant proteins (30 ng), human PI3Kα (PIK3CA/PIK3R1, #1161‐1165‐1 ProQinase–Germany), hPI3Kβ (PIK3CB wt/PIK3R1, #1168‐1165‐1 ProQinase, Germany), hPI3Kγ (PIK3CG, #1163‐0000‐1 ProQinase, Germany), hPI3Kδ (PIK3CD/PIK3R1, #1162–1165‐1 ProQinase, Germany), hPI3K‐C2α (PIK3C2A, #14‐906 Merck Millipore_Merck KGaA, Germany), hPI3K‐C2β (PIK3C2B, #14‐907 Merck Millipore_Merck KGaA, Germany), hPI3K‐c2γ (PIK3C2G, #1207‐0000‐1 ProQinase, Germany), and hVps34 (PIK3C3, #1160‐0000‐1 ProQinase, Germany), were incubated in kinase buffer {12.5 μL; 20 mM Tris‐HCl pH 7.5, 10 mM MgCl2, 10 μM ATP, 0.05 mg mL^−1 BSA, 0.5 mM EDTA, 5 mM HEPES pH 7.5, for PI3Kα,PI3Kβ, PI3Kγ, PI3Kδ, PI3KC‐2α, and PI3KC‐2γ; 15 mM MnCl2, 5 mM EGTA, 100 μM ATP, 50 mM HEPES pH 7.5, 100 mM NaCl, and 0.03 % CHAPS for PI3K‐C2β and VPS34 {BSA=bovine serum albumin; EDTA=ethylenediaminetetraacetic acid; HEPES=4‐(2‐hydroxyethyl)‐1‐piperazineethanesulfonic acid; EGTA=ethylene glycol‐bis(2‐aminoethylether)‐N,N,N′,N′‐tetraacetic acid; CHAPS=3‐[(3‐cholamidopropyl)dimethylammonio]‐1‐propanesulfonate}. In the reaction, the ATP concentration used for different PI3Ks was defined on the basis of the Michaelis–Menten kinetics of each enzyme, provided by the supplier. Reaction was performed in presence of 0.5 mg mL^−1 lipid micelles (1:1 phosphatidylinositol/phosphatidylserine) and in the absence (DMSO alone) or presence of increasing concentrations of each compound (from 0.1 nM to 30 μM). The mixture was kept at room temperature (RT) for 30 min for PI3Kα, PI3Kβ, PI3Kγ, PI3Kδ, PI3KC‐2α, and PI3KC‐2γ and for 1 h for PI3K‐C2β and PI3K‐C3. The amount of ADP produced in the reaction was measured by using the ADP‐Glo Kinase Assay kit from Promega (#V9102) and a luminescence reader (Glomax multi detection system, Promega, model number 9301‐010).
(§6) The residual PI3K lipid kinase activity in the presence of each molecule at different concentrations was related to the control, intended as the recombinant protein in the presence of DMSO alone and was expressed as a percentage. To derive the IC50 value, all data (% of lipid kinase activity) were plotted on a dose–response curve (Graph Pad software), and the IC50 was calculated by using nonlinear regression fit (equation [log agonist] versus response).
(ADP-Glo first removes unused ATP, then detects ADP through luciferase.)

Series [4] has as its target T2, hPI3Kβ (PIK3CB wt/PIK3R1) (Homo sapiens, UniProt P42338).
T2 construct: purchased ProQinase, Germany 1168‐1165‐1
Description: lipid kinase assay (ADP-Glo), PI3Kβ. Type of series: biochemical. The protocol: as §5, §6

The target in another series is T3, hPI3Kγ (PIK3CG) (Homo sapiens, UniProt P48736).
T3 construct: purchased ProQinase, Germany 1163‐0000‐1
Put plainly: lipid kinase assay (ADP-Glo), PI3Kγ. Format: biochemical. The protocol: as §5, §6

Another series deals with T4, hPI3Kδ (PIK3CD/PIK3R1) (Homo sapiens, UniProt O00329).
T4 construct: purchased ProQinase, Germany 1162–1165‐1
Put plainly: lipid kinase assay (ADP-Glo), PI3Kδ. Format: biochemical. The protocol: as §5, §6

The mark [5] stands for this setting: Table 2, mean of at least three determinations, 95 % confidence intervals.

T1 sequence (P42336 whole entry): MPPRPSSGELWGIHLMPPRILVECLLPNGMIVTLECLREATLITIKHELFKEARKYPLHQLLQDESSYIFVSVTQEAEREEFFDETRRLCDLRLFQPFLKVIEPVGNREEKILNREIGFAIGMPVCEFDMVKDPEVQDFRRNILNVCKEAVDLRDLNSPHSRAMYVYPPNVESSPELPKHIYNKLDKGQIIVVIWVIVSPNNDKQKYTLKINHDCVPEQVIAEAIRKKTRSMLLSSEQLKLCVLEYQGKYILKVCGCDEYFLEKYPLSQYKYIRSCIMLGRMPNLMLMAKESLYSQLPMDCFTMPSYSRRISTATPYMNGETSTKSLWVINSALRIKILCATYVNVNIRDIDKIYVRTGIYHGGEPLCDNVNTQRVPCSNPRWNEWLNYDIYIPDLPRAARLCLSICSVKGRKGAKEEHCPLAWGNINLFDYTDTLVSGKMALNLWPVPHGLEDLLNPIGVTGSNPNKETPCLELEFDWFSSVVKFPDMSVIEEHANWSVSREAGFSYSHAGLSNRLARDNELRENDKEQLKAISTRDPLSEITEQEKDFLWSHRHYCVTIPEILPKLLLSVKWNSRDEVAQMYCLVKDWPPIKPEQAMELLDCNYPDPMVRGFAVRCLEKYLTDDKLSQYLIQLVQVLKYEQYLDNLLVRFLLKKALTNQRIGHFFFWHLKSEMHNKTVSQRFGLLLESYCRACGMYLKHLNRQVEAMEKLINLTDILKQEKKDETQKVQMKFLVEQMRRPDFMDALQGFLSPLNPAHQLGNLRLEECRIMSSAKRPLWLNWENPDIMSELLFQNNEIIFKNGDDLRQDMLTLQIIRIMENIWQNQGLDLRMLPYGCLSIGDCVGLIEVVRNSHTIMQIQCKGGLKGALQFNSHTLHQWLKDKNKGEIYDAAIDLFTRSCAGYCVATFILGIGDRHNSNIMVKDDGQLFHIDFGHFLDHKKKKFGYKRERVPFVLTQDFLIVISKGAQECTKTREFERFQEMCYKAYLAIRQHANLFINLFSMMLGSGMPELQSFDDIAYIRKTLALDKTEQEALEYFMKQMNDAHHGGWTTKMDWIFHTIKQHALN
T1 sequence (P27986 whole entry partner): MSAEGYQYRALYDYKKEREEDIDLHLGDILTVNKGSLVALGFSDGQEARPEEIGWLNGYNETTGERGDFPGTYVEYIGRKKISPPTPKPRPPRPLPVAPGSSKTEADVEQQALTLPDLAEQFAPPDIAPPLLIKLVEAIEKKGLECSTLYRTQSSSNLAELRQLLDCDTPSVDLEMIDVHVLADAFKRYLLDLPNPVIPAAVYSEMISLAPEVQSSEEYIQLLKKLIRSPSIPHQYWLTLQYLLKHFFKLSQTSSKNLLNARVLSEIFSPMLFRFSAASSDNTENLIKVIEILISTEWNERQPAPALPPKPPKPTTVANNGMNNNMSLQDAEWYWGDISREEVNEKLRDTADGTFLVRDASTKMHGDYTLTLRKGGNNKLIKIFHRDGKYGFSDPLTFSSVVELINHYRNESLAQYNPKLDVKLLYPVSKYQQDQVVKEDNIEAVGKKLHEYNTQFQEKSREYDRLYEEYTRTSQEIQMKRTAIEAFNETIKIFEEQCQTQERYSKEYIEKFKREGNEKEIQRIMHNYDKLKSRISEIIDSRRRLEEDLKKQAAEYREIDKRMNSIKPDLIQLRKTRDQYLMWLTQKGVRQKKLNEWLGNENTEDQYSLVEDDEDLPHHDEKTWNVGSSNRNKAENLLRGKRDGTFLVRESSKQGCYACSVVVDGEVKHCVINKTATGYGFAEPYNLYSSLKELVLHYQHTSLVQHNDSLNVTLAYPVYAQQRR
T2 sequence (P42338 whole entry): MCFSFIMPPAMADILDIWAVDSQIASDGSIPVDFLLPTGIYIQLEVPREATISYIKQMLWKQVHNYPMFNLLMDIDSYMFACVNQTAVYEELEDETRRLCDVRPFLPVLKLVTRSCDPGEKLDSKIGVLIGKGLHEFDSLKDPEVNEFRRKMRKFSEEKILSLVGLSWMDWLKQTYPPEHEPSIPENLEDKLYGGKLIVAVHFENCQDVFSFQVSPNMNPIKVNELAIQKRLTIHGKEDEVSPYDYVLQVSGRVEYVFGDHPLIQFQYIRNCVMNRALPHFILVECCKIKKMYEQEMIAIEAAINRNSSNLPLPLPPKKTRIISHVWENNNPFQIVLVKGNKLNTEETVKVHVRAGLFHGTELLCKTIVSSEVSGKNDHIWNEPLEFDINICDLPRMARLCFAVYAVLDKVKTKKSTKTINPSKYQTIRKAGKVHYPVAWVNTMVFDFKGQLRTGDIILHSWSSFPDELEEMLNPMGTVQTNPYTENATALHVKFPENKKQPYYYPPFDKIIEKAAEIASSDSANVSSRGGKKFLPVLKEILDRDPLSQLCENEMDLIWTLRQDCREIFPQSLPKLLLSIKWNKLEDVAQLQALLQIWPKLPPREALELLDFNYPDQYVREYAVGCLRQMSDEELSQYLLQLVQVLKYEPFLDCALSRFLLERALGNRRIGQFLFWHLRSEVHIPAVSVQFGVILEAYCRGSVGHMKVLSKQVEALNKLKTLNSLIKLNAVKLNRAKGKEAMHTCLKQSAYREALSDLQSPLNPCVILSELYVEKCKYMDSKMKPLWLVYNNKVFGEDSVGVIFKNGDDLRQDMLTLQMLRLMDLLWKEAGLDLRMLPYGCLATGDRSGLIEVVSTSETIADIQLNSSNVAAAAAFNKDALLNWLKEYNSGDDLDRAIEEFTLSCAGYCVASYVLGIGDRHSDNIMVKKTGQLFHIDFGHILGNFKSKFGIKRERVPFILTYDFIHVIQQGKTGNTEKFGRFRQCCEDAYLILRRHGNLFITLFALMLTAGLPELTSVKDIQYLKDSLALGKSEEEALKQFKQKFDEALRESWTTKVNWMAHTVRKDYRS
T2 sequence (P27986 whole entry partner): as the sequence (P27986 whole entry partner) above
T3 sequence (P48736 whole entry): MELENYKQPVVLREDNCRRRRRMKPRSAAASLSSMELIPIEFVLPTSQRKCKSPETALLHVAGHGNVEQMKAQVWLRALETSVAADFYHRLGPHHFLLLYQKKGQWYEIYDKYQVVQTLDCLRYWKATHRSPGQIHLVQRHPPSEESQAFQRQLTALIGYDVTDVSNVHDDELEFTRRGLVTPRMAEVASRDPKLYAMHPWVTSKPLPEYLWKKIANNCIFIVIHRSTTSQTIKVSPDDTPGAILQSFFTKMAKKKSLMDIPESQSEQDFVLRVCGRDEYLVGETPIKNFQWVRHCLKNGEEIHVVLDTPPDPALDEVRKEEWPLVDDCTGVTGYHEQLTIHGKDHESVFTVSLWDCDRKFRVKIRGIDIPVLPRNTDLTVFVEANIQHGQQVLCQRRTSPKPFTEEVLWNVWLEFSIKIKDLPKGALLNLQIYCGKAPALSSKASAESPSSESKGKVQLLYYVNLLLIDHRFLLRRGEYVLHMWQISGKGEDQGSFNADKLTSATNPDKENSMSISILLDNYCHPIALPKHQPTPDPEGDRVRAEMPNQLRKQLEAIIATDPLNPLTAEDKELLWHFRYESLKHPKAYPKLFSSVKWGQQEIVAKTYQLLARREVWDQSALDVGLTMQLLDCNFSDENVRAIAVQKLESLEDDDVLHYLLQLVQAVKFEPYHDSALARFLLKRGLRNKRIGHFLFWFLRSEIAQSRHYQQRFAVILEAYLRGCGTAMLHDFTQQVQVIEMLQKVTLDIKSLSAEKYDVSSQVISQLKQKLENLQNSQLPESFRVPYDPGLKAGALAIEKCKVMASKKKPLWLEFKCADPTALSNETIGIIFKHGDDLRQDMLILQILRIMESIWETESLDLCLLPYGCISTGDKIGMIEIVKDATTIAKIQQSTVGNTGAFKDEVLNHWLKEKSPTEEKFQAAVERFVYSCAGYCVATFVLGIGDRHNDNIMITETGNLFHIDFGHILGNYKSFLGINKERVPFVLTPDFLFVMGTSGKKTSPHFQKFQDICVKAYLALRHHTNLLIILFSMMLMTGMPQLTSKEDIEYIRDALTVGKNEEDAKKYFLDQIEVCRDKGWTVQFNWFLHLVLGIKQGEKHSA
T4 sequence (O00329 whole entry): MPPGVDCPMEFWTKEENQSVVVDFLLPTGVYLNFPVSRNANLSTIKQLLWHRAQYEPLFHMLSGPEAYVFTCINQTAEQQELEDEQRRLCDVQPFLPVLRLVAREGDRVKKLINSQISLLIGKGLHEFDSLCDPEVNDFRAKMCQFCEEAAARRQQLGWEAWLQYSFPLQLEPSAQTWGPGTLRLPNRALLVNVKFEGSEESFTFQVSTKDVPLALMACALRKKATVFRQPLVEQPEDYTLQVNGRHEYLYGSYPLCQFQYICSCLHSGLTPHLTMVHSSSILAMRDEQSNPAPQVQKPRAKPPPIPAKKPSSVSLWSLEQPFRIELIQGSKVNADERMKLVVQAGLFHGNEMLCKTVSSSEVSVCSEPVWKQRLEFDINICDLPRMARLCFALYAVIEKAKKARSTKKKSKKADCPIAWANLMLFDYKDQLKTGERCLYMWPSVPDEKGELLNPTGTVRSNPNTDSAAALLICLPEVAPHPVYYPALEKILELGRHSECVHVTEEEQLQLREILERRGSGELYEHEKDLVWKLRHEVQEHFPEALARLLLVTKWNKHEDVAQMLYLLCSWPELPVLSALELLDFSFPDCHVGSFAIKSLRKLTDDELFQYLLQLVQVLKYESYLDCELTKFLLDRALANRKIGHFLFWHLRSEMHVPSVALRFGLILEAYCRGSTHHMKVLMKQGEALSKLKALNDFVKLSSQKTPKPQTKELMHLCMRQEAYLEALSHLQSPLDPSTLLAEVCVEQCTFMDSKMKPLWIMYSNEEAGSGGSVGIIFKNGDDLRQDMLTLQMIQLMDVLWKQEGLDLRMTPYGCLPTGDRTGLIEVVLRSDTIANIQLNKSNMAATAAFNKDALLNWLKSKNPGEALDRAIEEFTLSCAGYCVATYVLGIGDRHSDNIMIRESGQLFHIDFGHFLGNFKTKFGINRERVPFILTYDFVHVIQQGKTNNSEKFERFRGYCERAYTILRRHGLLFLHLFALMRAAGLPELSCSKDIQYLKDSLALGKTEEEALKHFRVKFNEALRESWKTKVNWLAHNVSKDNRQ
T4 sequence (P27986 whole entry partner): as the sequence (P27986 whole entry partner) above

On to `CC(C)CCOC(=O)c1cccc(Cn2cc(-c3cccc4c(=O)cc(N5CCOCC5)[nH]c34)nn2)c1` [Compound 73, Isopentyl 3‐{[4‐(2‐morpholino‐4‐oxo‐1,4‐dihydroquinolin‐8‐yl)‐1H‐1,2,3‐triazol‐1‐yl]methyl}benzoate], for which the Cell proliferation result in the series on PC3 cells was “active”. Besides, in series [1], the “Residual microsomal substrate (t=60 min)” value is given as 39%. The half-life at 50 µM in series [2] (mouse, mouse plasma, 30 min incubation, 37 °C, read-out: Mouse plasma t 1/2) was below 1 min.
`CCCCCCCCCCCCCCCCCCOC(=O)c1cccc(Cn2cc(-c3cccc4c(=O)cc(N5CCOCC5)[nH]c34)nn2)c1` [Compound 76, Octadecyl 3‐{[4‐(2‐morpholino‐4‐oxo‐1,4‐dihydroquinolin‐8‐yl)‐1H‐1,2,3‐triazol‐1‐yl]methyl}benzoate]: the Cell proliferation entry in the series on PC3 cells was “inactive”. Moreover, in series [1] (60 min), the substrate depletion was 0%. Moreover, the “Residual microsomal substrate (t=60 min)” value in series [1] is listed as 100%. In addition, the “hydrolysis by mouse plasma hydrolases” value in series [2] (30 min) was “inert to the mouse plasma hydrolases”.
For the compound `CCOC(=O)c1cccc(Cn2cc(-c3cccc4c(=O)cc(N5CCOCC5)[nH]c34)nn2)c1` [Compound 67, Ethyl 3‐{[4‐(2‐morpholino‐4‐oxo‐1,4‐dihydroquinolin‐8‐yl)‐1H‐1,2,3‐triazol‐1‐yl]methyl}benzoate], in the series with PC3 cells, the Cell proliferation entry is listed as “active”. In series [1], the “Residual microsomal substrate (t=60 min)” value was 24%.
Broadly, the IC50 is the concentration needed to halve the response being measured. In the case of `COc1cccc(-n2cc(-c3cccc4c(=O)cc(N5CCOCC5)[nH]c34)nn2)c1` [Compound 35, 8‐[1‐(3‐Methoxyphenyl)‐1H‐1,2,3‐triazol‐4‐yl]‐2‐morpholinoquinolin‐4(1H)‐one], the IC50 in series [3] (Table 2, mean of at least three determinations, 95 % confidence intervals, read-out: IC50 PI3Kα) amounted to 1300 ± 700 nM; in series [4] (setting [5]), 9300 ± 5800 nM; against hPI3Kγ (PIK3CG) (setting [5]), 4200 ± 2100 nM; on hPI3Kδ (PIK3CD/PIK3R1) (setting [5]), 810 ± 360 nM. For the same compound, the inhibition at 1 µM is below 50% in series [3] (determined at 1 μM, at least triplicate, read-out: Inhibitory activity, PI3K isoform α); below 50% in series [4] (determined at 1 μM, at least triplicate, read-out: Inhibitory activity, PI3K isoform β); below 50% on hPI3Kγ (PIK3CG) (determined at 1 μM, at least triplicate, read-out: Inhibitory activity, PI3K isoform γ); above 50% at hPI3Kδ (PIK3CD/PIK3R1) (determined at 1 μM, at least triplicate, read-out: Inhibitory activity, PI3K isoform δ).
